Laboratory results reported in ChEMBL document CHEMBL4613243, “Calosides A-F, Cardenolides from Calotropis gigantea and Their Cytotoxic Activity” (J Nat Prod, 2020).
Calls of active or inactive are those of the source. The calls are words filed in the database; no cut-off is given here.

Tests used:
[1] = system: PANC-1; assay: Antiproliferative activity against human PANC1 cells assessed as reduction in cell viability after 72 hrs by WST-8 assay; assay type: functional, cell-based; conditions: PANC-1, 72 h
[2] = system: HeLa; assay: Antiproliferative activity against human HeLa cells assessed as reduction in cell viability after 72 hrs by WST-8 assay; assay type: functional, cell-based
[3] = system: PANC-1; assay: Cytotoxicity against human PANC1 cells assessed as reduction in cell viability at 0.05 to 100 uM after 74 hrs by crystal violet staining based assay; assay type: functional
[4] = system: PANC-1; assay: Cytotoxicity against human PANC1 cells assessed as reduction in cell viability at 0.78 uM after 74 hrs by crystal violet staining based assay; assay type: functional

SMILES | IC50 [1] | IC50 [2] | Activity [3] | Activity [4]
C[C@]12CC[C@H]3[C@@H](CC[C@@H]4C[C@@H](O[C@@H]5O[C@H](CO)[C@@H](O)[C@@H](O)[C@H]5O)CC[C@@]43C=O)[C@@]1(O)CC[C@@H]2C1=CC(=O)OC1 | 150 nM | 380 nM | – | –
Nc1ccn([C@@H]2O[C@H](CO)[C@@H](O)C2(F)F)c(=O)n1 [GEMCITABINE] | 5900 nM | – | inactive | –
C[C@H]1O[C@@H](O[C@@H]2CC[C@@]34CO[C@@]5(CC[C@@H]3C2)[C@@H]4CC[C@]2(C)[C@H](C3=CC(=O)OC3)CC[C@@H]25)[C@H](O)[C@H](O)[C@@H]1O | 4600 nM | > 10000 nM | – | –
C[C@]12CC[C@H]3[C@@H](CC[C@@H]4C[C@H](O[C@@H]5O[C@H](CO)[C@@H](O)[C@@H](O)[C@H]5O)CC[C@@]43CO)[C@@]1(O)CC[C@@H]2C1=CC(=O)OC1 | 280 nM | 560 nM | – | –
C[C@@H]1C[C@H](O)[C@]2(O)O[C@@H]3C[C@@]4(C=O)[C@@H](CC[C@@H]5[C@@H]4CC[C@]4(C)[C@@H](C6=CC(=O)OC6)CC[C@]54O)C[C@H]3O[C@@H]2O1 [CALOTROPIN] | > 10000 nM | > 10000 nM | – | –
COC(=O)[C@@]1(C)C[C@@H](C)O[C@H]1O[C@@H]1C[C@H]2CC[C@@H]3[C@H](CC[C@]4(C)[C@@H](C5=CC(=O)OC5)C[C@@H](O)[C@]34O)[C@@]2(C(=O)O)C[C@H]1O | 5200 nM | > 10000 nM | – | –
C[C@]12CC[C@H]3[C@@H](CC[C@@H]4C[C@H](O[C@@H]5O[C@H](CO)[C@@H](O)[C@@H](O)[C@H]5O)CC[C@@]43COC=O)[C@@]1(O)CC[C@@H]2C1=CC(=O)OC1 | 250 nM | 670 nM | – | –
C[C@]12CC[C@H]3[C@@H](CC[C@@H]4C[C@@H](O)[C@H](O)C[C@@]43C=O)[C@@]1(O)[C@H](O)C[C@@H]2C1=CC(=O)OC1 | > 10000 nM | > 10000 nM | – | –
C[C@H]1C[C@@](O)(CC(=O)O)[C@]2(O)O[C@@H]3C[C@@]4(C=O)[C@@H](CC[C@@H]5[C@@H]4CC[C@]4(C)[C@@H](C6=CC(=O)OC6)CC[C@]54O)C[C@H]3O[C@H]2O1 | 1000 nM | 1600 nM | – | –
C[C@]12CC[C@H]3[C@@H](CC[C@@H]4C[C@H](O[C@@H]5O[C@H](CO)[C@@H](O)[C@@H](O[C@H]6O[C@H](CO)[C@@H](O)[C@H](O)[C@H]6O)[C@H]5O)CC[C@@]43CO)[C@@]1(O)CC[C@@H]2C1=CC(=O)OC1 | 80 nM | 170 nM | – | 100%
C[C@]12CC[C@H]3[C@@H](CC[C@@H]4C[C@@H](O)[C@H](O)C[C@@]43CO)[C@@]1(O)CC[C@@H]2C1=CC(=O)OC1 | 5100 nM | > 10000 nM | – | –
C[C@]12CC[C@H]3[C@@H](CC[C@@H]4C[C@H](O[C@@H]5O[C@H](CO)[C@@H](O)[C@H](O[C@H]6O[C@H](CO)[C@@H](O)[C@H](O)[C@H]6O)[C@H]5O)CC[C@@]43CO)[C@@]1(O)CC[C@@H]2C1=CC(=O)OC1 | 70 nM | 170 nM | – | 100%
